From patent US20170260178A1 (SPERO GYRASE, INC., priority 2012, published 2017) come the findings set out here.

Converted amounts (≈) assume the structure as drawn.

One test concerns S. aureus (ATCC 29213). Nature of the test: Bacterial assay: MIC against S. aureus. It is filed as cell-based, Staphylococcus aureus. Conditions: Staphylococcus aureus, ATCC29213, read-out: minimal inhibitory concentration (MIC).
The subject of a further test is S. pyogenes (ATCC 51339). Nature of the test: Bacterial assay: MIC against S. pyogenes. It is filed as cell-based, Streptococcus pyogenes. Conditions: Streptococcus pyogenes, ATCC51339, read-out: minimal inhibitory concentration (MIC).

Turning to `CCNC(=O)Nc1nc2cc(-c3cnc(C(C)O)nc3)cc(-c3cc(CN4CCC(C)(O)C4)ccn3)c2s1` (centres unmarked) [Compound 84, 1-ethyl-3-[5-[2-(1-hydroxyethyl)pyrimidin-5-yl]-7-[4-[(3-hydroxy-3-methyl-pyrrolidin-1-yl)methyl]-2-pyridyl]-1,3-benzothiazol-2-yl]urea], the MIC in the test with S. aureus (ATCC 29213) and in the test with S. pyogenes (ATCC 51339) was at most 1 mg/L in each case.
Turning to `CCNC(=O)Nc1nc2cc(-c3cnc(C(C)O)nc3)cc(-c3cc(N4CCC(C)(C(=O)O)CC4)ncn3)c2s1` (centres unmarked) [Compound 109, 1-[6-[2-(ethylcarbamoylamino)-5-[2-(1-hydroxyethyl)pyrimidin-5-yl]-1,3-benzothiazol-7-yl]pyrimidin-4-yl]-4-methyl-piperidine-4-carboxylic acid], the values for the MIC in the test on S. aureus (ATCC 29213) and in the test on S. pyogenes (ATCC 51339) were 2 mg/L (≈ 3.55 µM) and at most 1 mg/L, respectively.
For `CCNC(=O)Nc1nc2cc(-c3cnc(C(C)(C)O)nc3)cc(-c3cc(C(C)N4CCOCC4)ccn3)c2s1` (centres unmarked) [Compound 33, 1-ethyl-3-[5-[2-(1-hydroxy-1-methyl-ethyl)pyrimidin-5-yl]-7-[4-(1-morpholinoethyl)-2-pyridyl]-1,3-benzothiazol-2-yl]urea] the same measures were at most 1 mg/L and at most 1 mg/L.
For `CCNC(=O)Nc1nc2cc(-c3cnc(C(C)(C)O)nc3)cc(-c3cccc(N4CCC(C)(C(=O)O)CC4)n3)c2s1` [Compound 51, 1-[6-[2-(ethylcarbamoylamino)-5-[2-(1-hydroxy-1-methyl-ethyl)pyrimidin-5-yl]-1,3-benzothiazol-7-yl]-2-pyridyl]-4-methyl-piperidine-4-carboxylic acid] the same measures were 4 mg/L (≈ 6.95 µM) and at most 1 mg/L.
As for `CCNC(=O)Nc1nc2cc(-n3cc(C(C)O)nn3)cc(-c3ccccn3)c2s1` (centres unmarked) [Compound 9, 1-ethyl-3-[5-[4-(1-hydroxyethyl)triazol-1-yl]-7-(2-pyridyl)-1,3-benzothiazol-2-yl]urea], the MIC with S. aureus (ATCC 29213) is 8 mg/L (≈ 19.5 µM); in the test on S. pyogenes (ATCC 51339) it was at most 1 mg/L.
Turning to `CCNC(=O)Nc1nc2cc(-c3cnc(C(C)(C)O)nc3)cc(OC)c2s1` [Compound 12, 1-ethyl-3-[5-[2-(1-hydroxy-1-methyl-ethyl)pyrimidin-5-yl]-7-methoxy-1,3-benzothiazol-2-yl]urea], the MIC in the test with S. aureus (ATCC 29213) and in the test on S. pyogenes (ATCC 51339) was at most 1 mg/L each time.
`CCNC(=O)Nc1nc2cc(-c3cnc(C(C)(C)O)nc3)cc(-c3nccc(NCCN4CCOCC4)n3)c2s1` [Compound 91, 1-ethyl-3-[5-[2-(1-hydroxy-1-methyl-ethyl)pyrimidin-5-yl]-7-[4-(2-morpholinoethylamino)pyrimidin-2-yl]-1,3-benzothiazol-2-yl]urea]: the MIC in the test with S. aureus (ATCC 29213) is 2 mg/L (≈ 3.55 µM); in the test with S. pyogenes (ATCC 51339), at most 1 mg/L.
For `CCNC(=O)Nc1nc2cc(-c3cnc(C(C)O)nc3)cc(-c3nccc(N4CC(O)C4)n3)c2s1` (centres unmarked) [Compound 105, 1-ethyl-3-[7-[4-(3-hydroxyazetidin-1-yl)pyrimidin-2-yl]-5-[2-(1-hydroxyethyl)pyrimidin-5-yl]-1,3-benzothiazol-2-yl]urea] the same measures were 16 mg/L (≈ 32.5 µM) and at most 1 mg/L.
In the case of `CCNC(=O)Nc1nc2cc(-c3cnc(C(C)O)nc3)cc(-c3cc(CN4CCC5(CC4)COC5)ccn3)c2s1` (centres unmarked) [Compound 112, 1-ethyl-3-[5-[2-(1-hydroxyethyl)pyrimidin-5-yl]-7-[4-(2-oxa-7-azaspiro[3.5]nonan-7-ylmethyl)-2-pyridyl]-1,3-benzothiazol-2-yl]urea], the MIC with S. aureus (ATCC 29213) and in the test with S. pyogenes (ATCC 51339) was at most 1 mg/L each time.
With `CCNC(=O)Nc1nc2cc(-c3cnc(C(C)(C)O)nc3)cc(-c3nccc(N4CCC(C)(C(=O)O)CC4)n3)c2s1` [Compound 97, 1-[2-[2-(ethylcarbamoylamino)-5-[2-(1-hydroxy-1-methyl-ethyl)pyrimidin-5-yl]-1,3-benzothiazol-7-yl]pyrimidin-4-yl]-4-methyl-piperidine-4-carboxylic acid], the MIC was 4 mg/L (≈ 6.94 µM) with S. aureus (ATCC 29213) and at most 1 mg/L in the test on S. pyogenes (ATCC 51339).
